{
  "source": "patent US12180255B2",
  "about": "“Compositions and methods for derepressing RE1 silencing transcription factor target genes” (Alcamena Stem Cell Therapeutics, LLC, priority 2019, dated 2024)",
  "assay_in_all_cases": "Off target phosphatase activity on phosphorylated REST peptide",
  "type_in_all_cases": "biochemical",
  "conditions_in_all_cases": "10000 nM RPP",
  "key": {"PPA1": {"biological_target": "T1, PPA1 (Homo sapiens, UniProt Q15181)", "T1 sequence (Q15181 2-289 limits assumed)": "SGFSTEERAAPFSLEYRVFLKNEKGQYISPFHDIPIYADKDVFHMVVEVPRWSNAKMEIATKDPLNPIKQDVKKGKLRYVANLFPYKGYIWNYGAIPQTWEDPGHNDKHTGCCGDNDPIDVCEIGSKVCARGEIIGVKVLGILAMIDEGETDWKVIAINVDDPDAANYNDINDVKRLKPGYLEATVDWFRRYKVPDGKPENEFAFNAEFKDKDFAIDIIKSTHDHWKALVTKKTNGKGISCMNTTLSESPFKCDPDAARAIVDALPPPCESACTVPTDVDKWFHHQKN"}, "PP3CA": {"biological_target": "PP3CA (Homo sapiens, UniProt Q08209)"}, "PPP1CA": {"biological_target": "PPP1CA (Homo sapiens, UniProt P62136)", "sequence (P62136 whole entry, species assumed)": "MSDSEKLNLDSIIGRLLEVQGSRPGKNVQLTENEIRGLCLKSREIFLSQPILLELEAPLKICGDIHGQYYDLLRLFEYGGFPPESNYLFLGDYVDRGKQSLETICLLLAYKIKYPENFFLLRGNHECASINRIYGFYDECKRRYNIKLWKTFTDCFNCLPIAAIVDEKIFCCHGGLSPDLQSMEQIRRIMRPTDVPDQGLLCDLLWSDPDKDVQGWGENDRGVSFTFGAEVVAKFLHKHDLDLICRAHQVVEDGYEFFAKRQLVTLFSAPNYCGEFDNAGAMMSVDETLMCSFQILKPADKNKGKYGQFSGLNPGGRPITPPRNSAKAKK"}, "PP5CA": {"biological_target": "T2, PP5CA (Homo sapiens, UniProt P53041)", "T2 sequence (P53041 1-499)": "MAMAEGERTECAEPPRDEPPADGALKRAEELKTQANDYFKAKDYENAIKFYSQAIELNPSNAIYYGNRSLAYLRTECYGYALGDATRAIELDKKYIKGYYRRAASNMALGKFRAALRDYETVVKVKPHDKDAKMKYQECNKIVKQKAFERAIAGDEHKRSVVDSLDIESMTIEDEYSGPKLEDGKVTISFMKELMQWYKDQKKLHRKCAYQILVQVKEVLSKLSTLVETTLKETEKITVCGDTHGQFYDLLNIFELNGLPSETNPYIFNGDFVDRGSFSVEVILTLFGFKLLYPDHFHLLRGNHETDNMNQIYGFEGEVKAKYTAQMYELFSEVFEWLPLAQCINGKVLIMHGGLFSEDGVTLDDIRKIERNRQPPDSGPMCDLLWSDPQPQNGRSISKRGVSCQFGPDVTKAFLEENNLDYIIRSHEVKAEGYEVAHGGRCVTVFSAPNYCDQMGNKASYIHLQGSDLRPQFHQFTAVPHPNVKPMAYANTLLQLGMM"}},
  "note": "Where a SMILES comes first, the peptide text is derived from it. [ ]: non-standard residue; d: D form. Gly(Dodecyl) = CCCCCCCCCCCC[C@H](N)C(=O)O",
  "data": [
    {"compound": "CCCCCCCCCCCC[C@@H]1NC(=O)[C@@H](CCCNC(=N)N)NC(=O)[C@@H](CCCNC(=N)N)NC(=O)[C@@H](Cc2c[nH]c3ccccc23)NC(=O)[C@@H](Cc2c[nH]c3ccccc23)NC(=O)[C@@H](CCCNC(=N)N)NC(=O)[C@@H](CCC(=O)O)NC(=O)[C@@H](CC(=O)O)NC(=O)[C@@H](CC(C)C)NC(=O)[C@@H](CCC(=O)O)NC(=O)[C@H]2CCCN2C(=O)[C@H]2CCCN2C(=O)[C@@H](CCC(=O)O)NC(=O)[C@H]2CCCN2C(=O)[C@H]2CCCN2C(=O)[C@@H](CC(C)C)NC(=O)[C@H]2CCCN2C(=O)[C@@H](CCCCN)NC(=O)[C@@H](CCCNC(=N)N)NC(=O)[C@@H](CCCNC(=N)N)NC(=O)[C@@H](CCCNC(=N)N)NC(=O)[C@@H](CCCNC(=N)N)NC(=O)[C@@H](CCCNC(=N)N)NC1=O", "note": "[SEQ ID NO: 12] (cyclo([dR][dW][dW][dR][dR][Gly(Dodecyl)][dR][dR][dR][dR][dR][dK][dP][dL][dP][dP][dE][dP][dP][dE][dL][dD][dE]))", "values": [
      {"measurement": "% Activity (Average N = 5)", "setting": "PPA1", "result": 101.125, "unit": "%"},
      {"measurement": "% Activity (Average N = 5)", "setting": "PP3CA", "result": 100.222, "unit": "%"},
      {"measurement": "% Activity (Average N = 5)", "setting": "PPP1CA", "result": 101.136, "unit": "%"},
      {"measurement": "% Activity (Average N = 5)", "setting": "PP5CA", "result": 97.902, "unit": "%"}
    ]}
  ]
}
